Assay results taken from patent publication US20080234132A1, “Microcin B17 Analogs And Methods For Their Preparation And Use” (priority 2004, published 2008).
Values after ≈ are worked out from the molar mass of the structure shown. Like-named read-outs stand apart in the source and are kept apart here. *1 amine or outer side, *2 acyl side, *3 side chain or, on linkers, in order; H or OH if unused. Where a SMILES comes first, the peptide text is derived from it. [ ]: non-standard residue; d: D form. GlyΨ(Thz) = O=C(c1csc(CN[*:1])n1)[*:2]; X1 = O=C(c1ccc(CN[*:1])[nH]1)[*:2]; X3 = O=C(c1coc(CN[*:1])n1)[*:2]

Legend:
E. coli Topoisomerase IV [1] = target: T1, E. coli Topoisomerase IV (Escherichia coli, UniProt P0AFI2+P20083); test: biochemical; assay type: biochemical; parameters: purchased John Innes Enterprises (Norwich, UK)
Description: (§5) Topoisomerase IV-mediated relaxation assays and decatenation assays were performed as previously described (see Peng and Marians, 1993). […] Decatenation assays contained topoisomerase IV (4 nM), 40 mM Tris HCl pH 7.5 at 30° C., 6 mM MgCl2, 10 mM DTT, 1 mM spermidine.HCl, 100 mM potassium glutamate, 0.5 mM ATP, 0.5 mg/mL BSA, 200 ng of kinetoplast DNA, and inhibitor where appropriate.

Human topoisomerase IIα [2] = target: T2, Human topoisomerase IIα (Homo sapiens, UniProt P11388); test: Human Topoisomerase IIα-mediated relaxation assay; assay type: biochemical; parameters: purchased TopoGEN Inc. (Port Orange, Fla., USA)
Description: (§1) Human Topoisomerase IIα-mediated relaxation assays and decatenation assays were performed as per the manufacturer's instructions in a total of 20 μL. Relaxation assays contained Topoisomerase IIα (4.3 nM), 50 mM Tris.HCl pH 8,120 mM KCl, 10 mM MgCl2, 0.5 mM DTT, 0.5 mM ATP, 4.6 nM of supercoiled pBR322 DNA, and inhibitor where appropriate. Decatenation assays substituted the supercoiled DNA with 200 ng catenated kinetoplast DNA.
(§2) All in vitro reactions were incubated at 37° C. for 30 minutes. The DMSO concentration in each reaction was kept constant at 3.33%. Reactions were quenched with the addition of an equal volume of phenol/chloroform/isoamyl alcohol (25:24:1) and one tenth volume of loading buffer containing 40% sucrose, 100 mM Tris.HCl pH 7.5, 100 mM EDTA, 2 mg/mL bromophenol blue. The proteins were precipitated by vortexing, followed by centrifugation for 5 minutes at 16 000 g. The aqueous phase was loaded onto 1% agarose gels in Tris-acetate and were electrophoresed at 60 V for three hours in Tris-acetate buffer. The gels were stained in 1 μg/mL ethidium bromide. The gels were visualised using UV light and were documented and analysed using Syngene software.

Human topoisomerase I = target: T3, Human topoisomerase I (Homo sapiens, UniProt P11387); test: Human topoisomerase I-mediated relaxation assay; assay type: biochemical
T3 construct: purchased TopoGEN Inc. (Port Orange, Fla., USA)
T3 sequence (P11387 1-765): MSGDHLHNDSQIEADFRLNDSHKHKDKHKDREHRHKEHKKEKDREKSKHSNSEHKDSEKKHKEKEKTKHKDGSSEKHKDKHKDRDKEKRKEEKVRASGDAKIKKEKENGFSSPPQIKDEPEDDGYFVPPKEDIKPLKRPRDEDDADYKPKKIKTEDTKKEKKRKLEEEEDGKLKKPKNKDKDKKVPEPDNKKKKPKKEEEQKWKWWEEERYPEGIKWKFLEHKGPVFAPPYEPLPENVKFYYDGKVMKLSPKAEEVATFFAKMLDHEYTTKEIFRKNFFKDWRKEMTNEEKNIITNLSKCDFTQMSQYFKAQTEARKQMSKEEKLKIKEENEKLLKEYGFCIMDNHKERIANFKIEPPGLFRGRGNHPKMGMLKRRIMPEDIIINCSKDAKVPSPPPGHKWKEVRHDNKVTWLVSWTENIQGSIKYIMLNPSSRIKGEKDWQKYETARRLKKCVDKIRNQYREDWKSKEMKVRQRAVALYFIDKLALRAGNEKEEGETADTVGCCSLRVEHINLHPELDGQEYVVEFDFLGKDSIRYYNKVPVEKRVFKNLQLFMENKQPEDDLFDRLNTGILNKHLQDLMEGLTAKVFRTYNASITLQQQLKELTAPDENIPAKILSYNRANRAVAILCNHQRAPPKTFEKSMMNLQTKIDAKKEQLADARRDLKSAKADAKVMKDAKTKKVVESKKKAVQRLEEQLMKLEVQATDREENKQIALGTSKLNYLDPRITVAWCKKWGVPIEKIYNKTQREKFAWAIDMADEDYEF
Description: Human topoisomerase I-mediated relaxation assays were performed as per the manufacturer's instructions. Topoisomerase I (2 nM) was added to reactions containing 10 mM of Tris.HCl, pH 7.9, 150 mM NaCl, 100 μM spermidine.HCl, 5% glycerol, 0.1% BSA, 4.6 nM of […] pBR322 DNA, and inhibitor where appropriate.
as §2

Human topoisomerase IIα [3] = target: T2, Human topoisomerase IIα; test: Human Topoisomerase IIα decatenation assay; assay type: biochemical; parameters: purchased TopoGEN Inc. (Port Orange, Fla., USA)
Description: as §1, §2

DNA gyrase [4] = target: T4, DNA gyrase (Escherichia coli, UniProt P0AES4+P0AES6); test: biochemical; parameters: species or system E. coli; conditions: for IC50 SC gyrase: Table 5-C
[5] = target: DNA gyrase W751R mutant A2B2 (Escherichia coli, UniProt P0AES4+P0AES6, W751R); assay type: biochemical, E. coli
Description: ATP hydrolysis by DNA gyrase was linked to the oxidation of NADH using a pyruvate Kinase (PK)/lactate dehydrogenase (LDH) coupled enzyme assay and measured at 340 nm on a Spectramax Plus Microplate. […] DMSO was kept constant at 2%.
DNA-dependent ATPase reactions were tested with the wild type enzyme A2B2 and the W751R mutant enzyme.

[6] = target: DNA gyrase MG1655 wild type A2B2 (Escherichia coli, UniProt P0AES4+P0AES6); test: biochemical; parameters: species or system E. coli; conditions: for ATPase % inhibition at saturation: Table 4
Description: ATP hydrolysis by DNA gyrase was linked to the oxidation of NADH using a pyruvate Kinase (PK)/lactate dehydrogenase (LDH) coupled enzyme assay and measured at 340 nm on a Spectramax Plus Microplate. […] Each 100 μL reaction contained 50 mM Tris.HCl (pH 7.5), 24 mM KCl, 5 mM MgCl2, 6.5% (w/w) glycerol, 4 mM dithiotreitol, 0.4 mM NADH, 0.8 mM phosphorenol-pyruvate, 1% (w/w) PK/LDH mixture (Sigma), 51 nM-153 nM gyrase enzyme and the drug tested at varying concentrations. DMSO was kept constant at 2%. The reactions were measured in the presence or absence of linear DNA pBR322 at fixed concentration of 8.4 nM. Reactions were initiated by the addition of 10 mM Mg.ATP and measured at 25° C. over 1.5 hours.
DNA-dependent ATPase reactions were tested with the wild type enzyme A2B2 and the W751R mutant enzyme. In these DNA-dependent ATPase assays, the concentration of wild type A2B2 is 51 nM, the concentration of W751R mutant enzyme is 106 nM.
Experimental data were fitted and treated with the following equation:
where L represents the inhibitor concentration, v represents the rate of the ATPase reaction, and v0 represents the rate in absence of inhibitor. The IC50 is deduced from the equation 2:

[7] = test system: A. thaliana ecotype Columbia seeds; test: Seed germination of A. thaliana; assay type: in vivo, Arabidopsis thaliana; conditions: 36 hours; 100 μM Peptide 1; 5 μM CFX
Description: The microcin derivatives were tested for efficacy in planta against Arabidopsis thaliana ecotype Columbia according to known methods (see Wall et al., 2004).

DNA gyrase W751R A2B2 = DNA gyrase W751R A2B2 (Escherichia coli, UniProt P0AES4+P0AES6, W751R); test: Supercoiling in vitro assay, W751R mutant enzyme; assay type: biochemical, E. coli
Description: (§6) GyrA and GyrB were added to a solution containing 35 mM Tris.HCl (pH, 7.5), 24 mM KCl, 4 mM MgCl2, 1.8 mM spermidine, 6.5% glycerol, 0.36 mg/mL BSA, 9 μg/mL tRNA, 5 mM DTT, 2 mM ATP and 24 nM relaxed pBR322 DNA. […] The reactions were incubated at 25° C., and at each time point 30-μl aliquots were quenched with 1 μL of 10% SDS. An equal volume of chloroform/isoamyl alcohol (24:1) and a half volume of loading buffer STEB (40% sucrose/100 mM Tris.HCl, pH 7.5/100 mM EDTA/2 mg/ml bromophenol blue) were added, and the mixtures then were vortexed and centrifuged for 1 min at 13,000 rpm. The aqueous phase was loaded onto 1% agarose, TAE (40 mM Tris-acetate, 1 mM EDTA) gels and were run at either 30 V overnight in TAE (in the cold room) or 70 V for 2.5 hours. The gels were stained for about 20 min in TAE containing 1 μg/ml ethidium bromide followed by destaining in multiple washes of TAE.

DNA gyrase A2B2 = DNA gyrase A2B2 (Escherichia coli, UniProt P0AES4+P0AES6); test: biochemical; assay type: biochemical, E. coli
Description: Relaxation assays were performed in a manner analogous to that described by Pierrat et al., 2005. Briefly, relaxation assays were performed as for the supercoiling assay but with some modifications: ATP and spermidine were omitted. Gyr A and Gyr B were added to a solutions containing 35 mM of Tris.HCl (pH=7.5), 24 mM of KCl, 4 mM of MgCl2, 1.8 mg/mL of spermidine, 6.5% of glycerol, 0.36 mg/mL of BSA, 9 μg/mL of tRNA, 5 mM of DTT, 2 mM of ATP and 24 nM of relaxed pBR322 DNA. […] The amount of DMSO was kept constant at 3.33%. The reactions were incubated at 25° C., and at each time point 30 μL aliquots were quenched with the addition of an equal volume of chloroform/isoamyl alcohol (24:1) and a half volume of loading buffer STEB (40% sucrose/100 mM Tris HCl, pH 7.5/100 mM EDTA/2 mg/mL bromophenol blue). The mixtures then were vortexed and centrifuged for 1 minute at 13,000 rpm. The aqueous phase was loaded onto 1% agarose, TAE (40 mM Tris-acetate, 1 mM EDTA) gels and were run at either 30 V overnight in TAE (in the cold room) or 70 V for 2.5 hours in TAE. The gels were stained for about 20 minutes in TAE containing 1 μg/mL ethidium bromide followed by destaining in multiple washes of TAE. The data were analysed using Syngel software.

DNA gyrase [8] = target: T4, DNA gyrase; assay type: biochemical, E. coli; conditions: for Cleavage (IC50 μM): Table 4; for IC50 cleavage: Table 5-C
Description: GyrA and GyrB were added to solutions containing 35 mM Tris.HCl (pH, 7.5), 24 mM KCl, 4 mM MgCl2, 1.8 mM spermidine, 6.5% glycerol, 0.36 mg/mL BSA, 9 μg/mL tRNA, 5 mM DTT, 2 mM ATP and 10 nM relaxed pBR322 DNA. […] The reactions were incubated at 25° C., and at each time point 30-μl aliquots were quenched with 1 μL of 10% SDS and 2 μL of 2 mg/ml proteinase K. Quenched aliquots were kept on ice until the experiment was completed, at which time they were incubated at 37° C. for half an hour. An equal volume of chloroform/isoamyl alcohol (24:1) and a half volume of loading buffer STEB (40% sucrose/100 mM Tris HCl, pH 7.5/1 mM EDTA/2 mg/ml bromophenol blue) were added, and the mixtures then were vortexed and centrifuged for 1 min at 13,000 rpm. The aqueous phase was loaded onto 1% agarose, TAE (40 mM Tris-acetate, 1 mM EDTA) gels that contained 1 μg/ml ethidium bromide and were run at either 30 V overnight in TAE containing 1 μg/ml ethidium bromide (in the cold room) or 70 V for 2.5 hours in TAE containing 1 μg/ml ethidium bromide.

[9] = target: Wheatgerm topoisomerase I (Triticum aestivum, UniProt A0A3B6RK19); test: Wheatgerm topoisomerase I-mediated relaxation assay; assay type: biochemical
Description: Wheatgerm topoisomerase I-mediated relaxation assays were performed as per the manufacturer's instructions. Topoisomerase I (2 nM) was added to reactions containing 50 mM Tris. HCl pH 7.5, 50 mM NaCl, 0.1 mM EDTA, 1 mM DTT, 20% glycerol, 4.6 nM of […] pBR322 DNA, and inhibitor where appropriate.
as §2

[10] = target: DNA gyrase (MG 1655 A2B2) (Escherichia coli, UniProt P0AES4+P0AES6); test: biochemical; parameters: species or system E. coli
Description: as §6

E. coli Topoisomerase IV [11] = target: T1, E. coli Topoisomerase IV; test: biochemical; parameters: purchased John Innes Enterprises (Norwich, UK)
Description: as §5

HT-29 cells = test: cells; assay type: cell-based, human; conditions: MTT, 24 hours; read-out: In vivo HT29 Cells (approximate IC50)
Description: (§3) Human cell cultures were initiated from frozen cell stocks (the gift of Dr J. Gavrilovic, UEA). The HT-29 line is derived from a colorectal adenocarcinoma while HeLa cells are derived from a cervical epithelial adenocarcinoma (see FIG. 35). Both human cell lines form adherent cultures and were maintained at 37° C. in T25 culture vessels as 10 mL cultures in CO2 Independent Media containing 10% foetal bovine serum (EU approved), 4 mM L-glutamine, penicillin/streptomycin (Invitrogen). A subcultivation ratio of 1:3 and 1:6 were maintained for HT-29 and HeLa lines respectively. Media was renewed every three days.
(§4) The assay to determine the effects of the heterocyclic compounds on mammalian cells is based on the cleavage of the yellow tetrazolium salt MTT to purple formazoan crystals by metabolically active cells (Roche). After incubation with MTT and solubilization, the resulting coloured solution is quantified using a scanning spectrophotometer. Each of the cell lines was trypsinised and resuspended in fresh media prior to transfer to sterile flat-bottomed microtitre plates (200 μL per well) and allowed to recover for 16 hours. Five thousand HT-29 or 7500 HeLa cells per 100 μL culture medium were incubated in the presence of the drugs in various concentrations (totalling 10 μL) for 24 hours. Cell viability was then determined by addition of MTT reagent (20 μL) in each well, as per manufacturer's instructions and incubated for a further 4 hours. Solubilization solution (100 μL) was added per well and the plates incubated overnight at 37° C. The plates were read in a spectrophotometer (scanning from 500-650 nm, signal peak at 570 nm). A representative result is illustrated in FIG. 36.

HeLa cells = test: cells; assay type: cell-based, human; conditions: MTT, 24 hours; read-out: In vivo HeLa Cells (approximate IC50)
Description: as §3, §4

[12] = Topo IIα Human, R (relaxation reaction) IC50
[13] = Supercoiling (IC50 μM) MG 1655 A2B2, Table 4

T2 sequence (P11388 whole entry): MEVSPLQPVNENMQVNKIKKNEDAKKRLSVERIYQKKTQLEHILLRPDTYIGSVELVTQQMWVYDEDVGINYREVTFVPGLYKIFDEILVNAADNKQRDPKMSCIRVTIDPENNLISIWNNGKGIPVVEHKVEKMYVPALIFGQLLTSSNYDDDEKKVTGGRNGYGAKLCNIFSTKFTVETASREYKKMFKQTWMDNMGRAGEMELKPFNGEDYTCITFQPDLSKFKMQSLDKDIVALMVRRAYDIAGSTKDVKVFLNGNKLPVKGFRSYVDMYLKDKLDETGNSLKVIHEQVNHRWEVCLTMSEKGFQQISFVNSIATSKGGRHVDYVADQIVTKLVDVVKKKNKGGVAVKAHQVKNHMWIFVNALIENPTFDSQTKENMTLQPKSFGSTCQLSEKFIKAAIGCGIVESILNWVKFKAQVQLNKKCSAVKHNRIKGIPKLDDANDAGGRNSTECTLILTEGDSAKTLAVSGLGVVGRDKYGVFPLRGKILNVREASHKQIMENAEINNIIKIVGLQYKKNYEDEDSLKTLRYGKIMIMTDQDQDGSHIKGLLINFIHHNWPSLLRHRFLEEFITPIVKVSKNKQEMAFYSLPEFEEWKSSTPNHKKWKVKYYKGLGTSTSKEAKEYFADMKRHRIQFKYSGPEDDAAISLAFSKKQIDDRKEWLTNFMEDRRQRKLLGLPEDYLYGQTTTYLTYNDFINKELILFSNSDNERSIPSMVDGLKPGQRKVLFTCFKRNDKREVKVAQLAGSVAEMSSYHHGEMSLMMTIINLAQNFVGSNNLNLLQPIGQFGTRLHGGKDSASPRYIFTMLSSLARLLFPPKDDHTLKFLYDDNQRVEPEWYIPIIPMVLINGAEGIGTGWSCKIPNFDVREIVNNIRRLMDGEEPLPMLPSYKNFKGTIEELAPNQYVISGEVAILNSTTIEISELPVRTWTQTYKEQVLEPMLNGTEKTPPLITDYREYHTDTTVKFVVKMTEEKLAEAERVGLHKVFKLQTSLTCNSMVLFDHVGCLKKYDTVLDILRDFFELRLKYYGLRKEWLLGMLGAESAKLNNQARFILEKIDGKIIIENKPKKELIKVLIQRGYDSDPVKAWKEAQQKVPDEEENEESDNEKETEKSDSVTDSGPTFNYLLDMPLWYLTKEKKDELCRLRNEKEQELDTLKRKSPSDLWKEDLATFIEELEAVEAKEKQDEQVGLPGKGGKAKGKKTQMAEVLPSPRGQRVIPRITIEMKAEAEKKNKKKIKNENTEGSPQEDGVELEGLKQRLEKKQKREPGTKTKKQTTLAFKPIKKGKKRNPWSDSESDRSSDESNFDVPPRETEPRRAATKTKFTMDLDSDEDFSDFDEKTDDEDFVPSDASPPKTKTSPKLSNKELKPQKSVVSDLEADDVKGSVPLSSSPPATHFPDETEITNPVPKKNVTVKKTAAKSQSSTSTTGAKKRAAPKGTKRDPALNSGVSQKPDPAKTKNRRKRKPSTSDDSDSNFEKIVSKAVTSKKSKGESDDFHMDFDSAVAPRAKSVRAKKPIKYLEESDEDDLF
T1 sequence (P20083 whole entry): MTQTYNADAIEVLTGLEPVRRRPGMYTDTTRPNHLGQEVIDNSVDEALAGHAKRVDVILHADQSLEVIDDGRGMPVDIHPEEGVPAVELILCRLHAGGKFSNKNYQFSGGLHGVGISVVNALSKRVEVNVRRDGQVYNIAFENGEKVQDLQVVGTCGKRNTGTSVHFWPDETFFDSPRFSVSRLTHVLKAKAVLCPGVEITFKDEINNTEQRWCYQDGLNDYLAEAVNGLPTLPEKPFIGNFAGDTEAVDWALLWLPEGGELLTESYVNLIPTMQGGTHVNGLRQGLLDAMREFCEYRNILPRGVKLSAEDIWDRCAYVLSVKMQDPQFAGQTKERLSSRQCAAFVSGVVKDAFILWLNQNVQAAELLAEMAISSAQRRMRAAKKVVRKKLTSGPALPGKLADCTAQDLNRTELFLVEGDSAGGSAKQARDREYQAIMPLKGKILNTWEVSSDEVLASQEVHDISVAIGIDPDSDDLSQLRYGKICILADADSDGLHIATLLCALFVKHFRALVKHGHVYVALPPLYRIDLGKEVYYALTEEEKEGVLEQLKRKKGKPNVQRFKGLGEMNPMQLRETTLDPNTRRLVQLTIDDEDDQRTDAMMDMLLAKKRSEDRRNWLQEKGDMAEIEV
T1 sequence (P0AFI2 whole entry): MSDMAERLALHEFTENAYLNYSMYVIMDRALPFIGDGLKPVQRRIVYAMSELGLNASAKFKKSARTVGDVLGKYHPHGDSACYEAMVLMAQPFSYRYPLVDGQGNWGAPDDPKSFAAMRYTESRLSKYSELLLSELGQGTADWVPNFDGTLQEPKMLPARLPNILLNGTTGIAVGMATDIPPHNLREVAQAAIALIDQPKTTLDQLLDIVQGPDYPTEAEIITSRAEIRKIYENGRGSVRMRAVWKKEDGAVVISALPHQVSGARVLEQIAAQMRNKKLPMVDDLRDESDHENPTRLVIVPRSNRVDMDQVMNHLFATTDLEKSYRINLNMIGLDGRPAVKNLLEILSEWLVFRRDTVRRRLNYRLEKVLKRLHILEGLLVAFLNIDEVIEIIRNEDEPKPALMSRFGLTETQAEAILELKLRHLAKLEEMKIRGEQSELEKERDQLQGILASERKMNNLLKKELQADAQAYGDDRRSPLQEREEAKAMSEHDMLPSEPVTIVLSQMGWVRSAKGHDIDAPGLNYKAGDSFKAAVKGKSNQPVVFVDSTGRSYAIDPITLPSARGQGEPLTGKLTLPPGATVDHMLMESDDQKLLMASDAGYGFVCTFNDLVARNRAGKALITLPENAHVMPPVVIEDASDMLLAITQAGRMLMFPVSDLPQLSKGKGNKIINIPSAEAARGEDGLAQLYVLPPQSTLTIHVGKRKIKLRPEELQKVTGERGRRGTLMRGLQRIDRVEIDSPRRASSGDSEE
Sequence of Wheatgerm topoisomerase I (A0A3B6RK19 entry or part of it): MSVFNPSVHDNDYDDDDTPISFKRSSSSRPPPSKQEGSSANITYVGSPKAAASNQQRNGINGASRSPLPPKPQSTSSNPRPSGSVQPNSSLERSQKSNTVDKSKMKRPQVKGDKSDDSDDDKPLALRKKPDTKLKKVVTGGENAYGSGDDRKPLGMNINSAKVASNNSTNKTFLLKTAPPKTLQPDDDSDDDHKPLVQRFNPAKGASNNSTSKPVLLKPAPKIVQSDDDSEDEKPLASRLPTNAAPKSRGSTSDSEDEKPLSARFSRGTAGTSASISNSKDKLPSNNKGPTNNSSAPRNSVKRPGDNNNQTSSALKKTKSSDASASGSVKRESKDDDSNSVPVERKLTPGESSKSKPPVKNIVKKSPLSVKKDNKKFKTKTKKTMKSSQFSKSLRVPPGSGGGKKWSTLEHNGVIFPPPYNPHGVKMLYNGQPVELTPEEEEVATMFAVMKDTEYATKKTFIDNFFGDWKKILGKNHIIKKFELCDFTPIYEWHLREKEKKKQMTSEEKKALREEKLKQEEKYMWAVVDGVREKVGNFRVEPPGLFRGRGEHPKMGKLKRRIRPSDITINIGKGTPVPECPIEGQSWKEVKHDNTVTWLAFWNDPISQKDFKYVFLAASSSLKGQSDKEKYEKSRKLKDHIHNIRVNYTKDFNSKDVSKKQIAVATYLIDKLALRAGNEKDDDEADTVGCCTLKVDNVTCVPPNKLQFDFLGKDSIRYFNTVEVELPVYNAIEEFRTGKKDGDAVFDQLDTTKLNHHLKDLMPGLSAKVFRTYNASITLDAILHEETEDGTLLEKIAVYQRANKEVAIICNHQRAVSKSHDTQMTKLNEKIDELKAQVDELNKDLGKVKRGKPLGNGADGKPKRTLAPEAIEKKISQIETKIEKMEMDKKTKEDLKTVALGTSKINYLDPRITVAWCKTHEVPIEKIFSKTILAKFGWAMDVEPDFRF
Description for pBR322 DNA: Other compounds like Ethidium Bromide (EtBr), MccB17 and Ciprofloxacin (CFX) were also tested as controls. In this assay, negatively supercoiled pBR322 was relaxed by topoisomerase I in the presence or the absence of the putative DNA intercalative compound. […] Sample reactions were performed in the same buffer used for the DNA relaxation of DNA gyrase (Pierrat & Maxwell, 2003). […] In one set of reactions, negatively supercoiled pBR322 DNA was relaxed at 37° C. for 30 minutes, then intercalative agent was added, i.e., the substrate of the assay was relaxed. In a second set of reactions, the intercalative agent was incubated with the DNA in reaction buffer at 37° C. for 15 minutes prior to the addition of topoisomerase I, i.e., the substrate of the assay was negatively supercoiled. […] Samples were incubated for 60 minutes at 37° C., followed by treatment with 1% SDS and 0.3 mg/mL proteinase K at 37° C. for 30 minutes. Reactions were terminated and samples were prepared for agarose gel electrophoresis as previously described (Heddle et al., 2001). Each reaction product was separated on 1% agarose gel, followed by staining in 1 μg/mL ethidium bromide.

Row | SMILES | Topo IV, D (decatenation reaction) IC50 (E. coli Topoisomerase IV [1]) | Topo I Human IC50 (Human topoisomerase I) | Topo IIα Human, D (decatenation reaction) IC50 (Human topoisomerase IIα [3]) | IC50 (DNA gyrase A2B2) | Cleavage (IC50 μM) (DNA gyrase [8]) | IC50 (Human topoisomerase IIα [2]; [12]) | IC50 (E. coli Topoisomerase IV [11]) | IC50 (HT-29 cells) | IC50 (HeLa cells) | IC50 (Human topoisomerase I) | IC50 (Human topoisomerase IIα [3]) | IC50 (DNA gyrase [4]) | other results
1 | CC(C)(C)OC(=O)NCc1nc(C(=O)O)cs1 [#5] | exquisitely sensitive | only inhibited human topoisomerase I | exquisitely sensitive |  |  |  |  |  |  |  |  |  | IC50 (Human topoisomerase IIα [2]; read-out: Topo IIα Human, R (relaxation reaction) IC50): < 20 µM
2 | CC(C)(C)OC(=O)NCc1nc(-c2nc(C(=O)O)cs2)co1 [#7] |  |  |  |  |  |  |  |  |  |  |  |  | IC50 SC gyrase (DNA gyrase [4]): Inactive
3 | CC(C)(C)OC(=O)NCc1nc(-c2nc(C(=O)O)co2)cs1 [#8] |  |  |  |  |  |  |  |  |  |  |  |  | IC50 SC gyrase (DNA gyrase [4]): Inactive
4 | O=C(O)c1cn(C2CC2)c2cc(N3CCNCC3)c(F)cc2c1=O [Ciprofloxacin, reference compound] |  |  |  |  |  |  |  |  |  |  |  |  | inhibition of DNA-independent ATPase of W751R mutant enzyme ([5]; FIG. 18, no DNA): does not inhibit; inhibition of DNA-dependent ATPase of W751R mutant A2B2 ([5]; W751R enzyme 106 nM, + DNA): slow down; inhibition of DNA-dependent ATPase of wild type enzyme ([6]; FIG. 18, 0.5 and 1.0 μM): slow down; inhibition of DNA-independent ATPase of wild type enzyme ([6]; FIG. 18, no DNA): does not inhibit; germination of A. thaliana ecotype Columbia seeds [7]: growth is inhibited immediately after germination; concentration producing a weak intercalative property (pBR322 DNA): 50 µM
5 | CC(NC(=O)CNC(=O)CNC(=O)c1ccc(CNC(=O)C(C)NC(=O)CNC(=O)C(N)CCC(N)=O)[nH]1)C(=O)O (stereo not drawn) [Peptide 1] (H-QGA[X1]GGA-OH; configuration not given here) | exquisitely sensitive | inhibited | exquisitely sensitive | 68 µM | inactive | < 20 µM | < 10 µM |  |  |  |  |  | IC50 (DNA gyrase W751R A2B2): > 200 µM; Topo I Wheatgerm IC50 [9]: inhibited; IC50 [6]: 37 µM; ATPase % inhibition at saturation [6]: 15%; times more soluble than MccB17 (Solubility): at least 20 times; solubility (Solubility; water with 2% DMSO): 1000 µM (≈ 582 µg/mL); IC50 [10, 13]: 68 µM; IC50 ([10]; inhibition of supercoiling IC50, [A2B2] 13.2 nM, incubated up to 4 h): < 75 µM
6 | C[C@H](NC(=O)CNC(=O)CNC(=O)c1coc(CNC(=O)[C@H](C)NC(=O)CNC(=O)[C@@H](N)CCC(N)=O)n1)C(=O)O [Peptide 4] (H-QGA[X3]GGA-OH) |  |  |  |  |  | 225 µM | > 300 µM | > 75 µM | > 75 µM | > 300 µM | < 50 µM | 400 µM | IC50 (E. coli Topoisomerase IV [1]): 175 µM; IC50 cleavage (DNA gyrase [8]): No
7 | CC(NC(=O)CNC(=O)CNC(=O)c1coc(CNC(=O)C(C)NC(=O)CNC(=O)C(N)CCC(N)=O)n1)C(=O)O (stereo not drawn) [Peptide 4] (H-QGA[X3]GGA-OH; configuration not given here) |  |  |  |  | inactive | 225 µM |  |  |  |  |  |  | Supercoiling (IC50 μM) MG 1655 A2B2 ([10]; Table 4): Slow
8 | CC(C)(C)OC(=O)NCc1nc(C(=O)O)cs1 [Peptide 5] |  |  |  |  |  | 15 µM | > 75 µM | ~15 µM | ~75 µM | 40 µM | < 5 µM | 75 µM | IC50 (E. coli Topoisomerase IV [1]): 20 µM
9 | C[C@H](NC(=O)CNC(=O)CNC(=O)c1csc(CNC(=O)[C@H](C)NC(=O)CNC(=O)[C@@H](N)CCC(N)=O)n1)C(=O)O [Peptide 5] (H-QGA[GlyΨ(Thz)]GGA-OH) |  |  |  | 40 µM |  | 7 µM |  | ~15 µM | ~75 µM | 25 µM | < 2.5 µM | 25 µM | IC50 cleavage (DNA gyrase [8]): No
10 | CC(NC(=O)CNC(=O)CNC(=O)c1csc(CNC(=O)C(C)NC(=O)CNC(=O)C(N)CCC(N)=O)n1)C(=O)O (stereo not drawn) [Peptide 5] (H-QGA[GlyΨ(Thz)]GGA-OH; configuration not given here) | exquisitely sensitive | inhibited | exquisitely sensitive | 15 µM | inactive | < 20 µM | < 10 µM |  |  |  |  |  | Topo I Wheatgerm IC50 [9]: inhibited; IC50 [6]: 15 µM; ATPase % inhibition at saturation [6]: 40%; IC50 [10, 13]: 15 µM
